This is an account of results in patent US7897602B2, “Indolinone compounds as kinase inhibitors” (Development Center for Biotechnology, priority 2009, dated 2011).

Common to all, as to type: biochemical
For one test, the target named is T1, PDGFR-β kinase (Homo sapiens, UniProt P09619).
T1 construct: recombinant N-terminal 6×His-tagged PDGFR-β kinase domain construct expressed by baculovirus; 6xHis (N); made in house
Put plainly: PDGFR-β kinase assay (33P incorporation into Poly(Glu-Tyr)). As to conditions: 500 nM test compound. As for the experimental part:
Inhibition of PDGFR-β kinase activity by compounds disclosed herein was quantified by measuring the amount of [^33P] incorporated into the substrate in the presence of a test compound. Briefly, a reaction mixture of 25 μL final volume containing 55 ng of PDGFR-β kinase (obtained by purifying recombinant N-terminal 6×His-tagged PDGFR-β kinase domain construct expressed by baculovirus), 2.5 μg of the substrate (Poly (Glu-Tyr, 4:1, Sigma)), kinase reaction buffer (20 mM MOPS pH 7.0, 1 mM EDTA, 5% glycerol, 0.01% Brij-35, 0.1% β-mercaptoethanol, 1 mg/mL BSA, 2 mM MnCl2, 30 μM ATP, 0.1 μCi per well [^33P]-γ-ATP (2,500-3,000 Ci/mmol)), and a test compound (500 nM, diluted with 4% DMSO) or DMSO (as the control) was incubated at 30° C. for 30 minutes. The reaction was stopped by adding 5 μL of 3% phosphoric acid solution. The resultant reaction solution was then harvested onto a filter plate (UniFilter-96 GF/B, PerkinElmer), washed 20 times for 5 min with d.d. H2O, and followed by the addition of 30 μL of MicroScint™-20 Cocktail (PerkinElmer). The plate was then sealed and counted using a TopCount scintillation detector (PerkinElmer). The percentage of inhibition rate of the test compound was calculated by dividing the retained radioactivity of the test sample with the retained radioactivity of the control sample and shown in Table 3.

The next test deals with T2, Aurora B kinase (Homo sapiens, UniProt Q96GD4).
T2 construct: purchased Cell signaling
The test can be described thus: Aurora B kinase assay ([γ-33P]ATP, CHOCKtide substrate). To be noted: 1.0 μM test compound. In short, it runs like this: (§1)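 Recombinant Aurora A (1 ng) or Aurora B (2.5 ng) incubated with test compound, CHOCKtide (1 μg) and [γ-33P]ATP/ATP at 10 μM (Aurora A) or 40 μM (Aurora B), 30 min at 33 °C. Stopped with phosphoric acid; filter-bound 33P counted; IC50 = half-maximal inhibition.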

A further test concerns the target T3, VEGFR2 kinase (Homo sapiens, UniProt P35968).
T3 construct: recombinant N-terminal 6×His-tagged VEGFR2 kinase domain construct expressed by baculovirus; 6xHis (N); made in house
Put plainly: VEGFR2 kinase assay (33P incorporation into Poly(Glu-Tyr)). As to conditions: 500 nM test compound; read-out: Inhibition at 500 nM (%) VEGFr-2. As for the experimental part: Inhibition of VEGFR2 kinase activity by compounds disclosed herein was quantified by measuring the amount of [^33P] incorporated into the substrate in the presence of a test compound. Specifically, a reaction mixture with a final volume of 25 μL and containing 6.25 ng of VEGFR2 kinase (obtained by purifying recombinant N-terminal 6×His-tagged VEGFR2 kinase domain construct expressed by baculovirus), 5 μg of substrate (Poly (Glu-Tyr, 4:1, Sigma)), kinase reaction buffer (20 mM MOPS pH 7.0, 1 mM EDTA, 5% glycerol, 0.01% Brij-35, 0.1% β-mercaptoethanol, 1 mg/mL BSA, 100 μM ATP, 0.1 μCi per well [^33P]-γ-ATP (2,500-3,000 Ci/mmol), and 500 nM test compound (final concentration of DMSO was 4%) or 4% DMSO alone (as the control sample), was incubated at 30° C. for 30 minutes. The reaction was then stopped by adding 5 μL of 3% phosphoric acid solution. The resultant solution was transferred to and harvested by a filter plate (UniFilter-96 GF/B, PerkinElmer). The filter plate was then washed 20 times with d.d. H2O for 5 min followed by the addition of 30 μL of MicroScint™-20 Cocktail (PerkinElmer). After the plate was sealed, the retained radioactivity on the filter was counted using a TopCount scintillation detector (PerkinElmer). The percentage of inhibition rate of the test compound was calculated by dividing the retained radioactivity of the test sample with the retained radioactivity of the control sample and shown in Table 3.

The next test has as its target T4, Flt3 kinase (Homo sapiens, UniProt P36888).
T4 construct: recombinant N-terminal 6×His-tagged Flt3 kinase domain construct expressed from baculovirus; 6xHis (N); made in house
T4 sequence (P36888 610-943 limits assumed): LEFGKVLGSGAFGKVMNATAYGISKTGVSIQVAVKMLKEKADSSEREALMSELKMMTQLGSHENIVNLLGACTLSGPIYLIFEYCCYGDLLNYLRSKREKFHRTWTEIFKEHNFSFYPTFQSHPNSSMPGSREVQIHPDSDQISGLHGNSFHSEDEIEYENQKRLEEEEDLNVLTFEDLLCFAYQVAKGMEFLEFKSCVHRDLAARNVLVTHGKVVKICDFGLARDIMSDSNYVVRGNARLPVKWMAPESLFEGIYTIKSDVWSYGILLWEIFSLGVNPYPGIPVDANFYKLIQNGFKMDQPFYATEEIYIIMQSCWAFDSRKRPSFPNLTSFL
The test can be described thus: Flt3 kinase assay (33P incorporation into Poly(Glu-Tyr)). To be noted: 100 nM test compound; read-out: Inhibition at 100 nM (%) Flt-3. As for the experimental part:
Inhibition of Flt3 kinase activity by compounds disclosed herein was quantified by measuring the amount of [^33P] incorporated into the substrate in the presence of a test compound. Briefly, a reaction mixture of 25 μL final volume containing 5 ng of Flt3 kinase (obtained by purifying recombinant N-terminal 6×His-tagged Flt3 kinase domain construct expressed from baculovirus), 5 μg of the substrate (Poly (Glu-Tyr, 4:1, Sigma)), kinase reaction buffer (20 mM MOPS pH 7.0, 1 mM EDTA, 5% glycerol, 0.01% Brij-35, 0.1% β-mercaptoethanol, 1 mg/mL BSA, 100 μM ATP, 0.1 μCi per well [^33P]-γ-ATP (2,500-3,000 Ci/mmol)), and a test compound (100 nM, diluted with 4% DMSO) or DMSO (as the control) was incubated at 30° C. for 30 minutes. The reaction was stopped by adding 5 μL of 3% phosphoric acid solution. The resultant reaction solution was then harvested onto a filter plate (UniFilter-96 GF/B, PerkinElmer), washed 20 times for 5 min with d.d. H2O, and followed by the addition of 30 μL of MicroScint™-20 Cocktail (PerkinElmer). The plate was then sealed and counted using a TopCount scintillation detector (PerkinElmer). The percentage of inhibition rate of the test compound was calculated by dividing the retained radioactivity of the test sample with the retained radioactivity of the control sample and shown in Table 3.

The target in the next test is T5, Aurora A kinase (Homo sapiens, UniProt O14965).
T5 construct: purchased Upstate
T5 sequence (O14965 1-403): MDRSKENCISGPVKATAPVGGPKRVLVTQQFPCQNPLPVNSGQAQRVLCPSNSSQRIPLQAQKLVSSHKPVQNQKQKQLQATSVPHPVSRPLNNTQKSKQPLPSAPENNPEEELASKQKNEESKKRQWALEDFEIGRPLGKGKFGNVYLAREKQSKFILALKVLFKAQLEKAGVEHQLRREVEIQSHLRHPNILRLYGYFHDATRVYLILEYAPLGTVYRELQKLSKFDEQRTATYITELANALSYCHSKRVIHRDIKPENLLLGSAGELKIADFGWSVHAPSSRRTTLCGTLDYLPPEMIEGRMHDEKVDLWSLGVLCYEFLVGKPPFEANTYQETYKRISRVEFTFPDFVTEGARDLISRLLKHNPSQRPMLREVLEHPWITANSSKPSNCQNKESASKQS
The test can be described thus: Aurora A kinase assay ([γ-33P]ATP, CHOCKtide substrate). As to conditions: for inhibition at 1 µM: 1.0 μM test compound. In a few lines: as §1

In the next test the target is T6, c-Met kinase (Homo sapiens, UniProt P08581).
T6 construct: recombinant N-terminal 6×His-tagged c-Met kinase domain construct expressed from baculovirus; 6xHis (N); made in house
The test can be described thus: c-Met kinase assay (33P incorporation into Poly(Glu-Tyr)). To be noted: 500 nM test compound. In a few lines: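 Recombinant N-terminal 6×His-tagged c-Met kinase domain (baculovirus-expressed, 5 ng) acted on Poly(Glu-Tyr) 4:1 with 100 μM ATP plus [33P]-γ-ATP in MOPS pH 7.0 buffer, 30 min at 30° C. Compound was at 500 nM. Filter-retained radioactivity was compared with the DMSO control to give percent inhibition.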

Molecules are shown by their SMILES.

T6 sequence (P08581 1078-1345 limits assumed): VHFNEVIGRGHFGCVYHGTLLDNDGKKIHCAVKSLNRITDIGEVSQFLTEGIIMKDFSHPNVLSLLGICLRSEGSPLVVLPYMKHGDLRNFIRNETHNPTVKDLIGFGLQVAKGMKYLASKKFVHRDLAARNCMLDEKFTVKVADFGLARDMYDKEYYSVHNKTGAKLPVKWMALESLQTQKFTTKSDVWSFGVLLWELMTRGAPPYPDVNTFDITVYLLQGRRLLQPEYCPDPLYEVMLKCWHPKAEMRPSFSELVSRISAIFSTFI
T2 sequence (Q96GD4 whole entry): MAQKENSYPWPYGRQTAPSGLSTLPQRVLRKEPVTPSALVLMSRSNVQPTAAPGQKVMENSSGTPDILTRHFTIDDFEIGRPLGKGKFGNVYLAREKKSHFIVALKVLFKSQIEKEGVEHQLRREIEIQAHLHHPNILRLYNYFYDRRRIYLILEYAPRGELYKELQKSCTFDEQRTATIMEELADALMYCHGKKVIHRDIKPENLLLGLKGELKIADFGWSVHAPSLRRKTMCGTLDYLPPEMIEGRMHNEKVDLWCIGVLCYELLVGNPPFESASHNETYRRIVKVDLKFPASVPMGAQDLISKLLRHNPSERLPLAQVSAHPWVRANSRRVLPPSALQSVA
T1 sequence (P09619 600-962 limits assumed): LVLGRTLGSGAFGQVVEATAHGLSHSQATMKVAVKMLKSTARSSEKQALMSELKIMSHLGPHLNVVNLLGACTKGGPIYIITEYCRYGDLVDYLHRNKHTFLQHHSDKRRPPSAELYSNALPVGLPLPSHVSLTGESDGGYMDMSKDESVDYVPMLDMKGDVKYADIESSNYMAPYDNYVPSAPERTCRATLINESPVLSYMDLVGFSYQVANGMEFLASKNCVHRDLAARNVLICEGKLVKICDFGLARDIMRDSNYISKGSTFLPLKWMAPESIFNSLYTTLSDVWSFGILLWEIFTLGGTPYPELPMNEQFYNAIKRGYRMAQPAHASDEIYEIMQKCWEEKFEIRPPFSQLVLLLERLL
T3 sequence (P35968 834-1162 limits assumed): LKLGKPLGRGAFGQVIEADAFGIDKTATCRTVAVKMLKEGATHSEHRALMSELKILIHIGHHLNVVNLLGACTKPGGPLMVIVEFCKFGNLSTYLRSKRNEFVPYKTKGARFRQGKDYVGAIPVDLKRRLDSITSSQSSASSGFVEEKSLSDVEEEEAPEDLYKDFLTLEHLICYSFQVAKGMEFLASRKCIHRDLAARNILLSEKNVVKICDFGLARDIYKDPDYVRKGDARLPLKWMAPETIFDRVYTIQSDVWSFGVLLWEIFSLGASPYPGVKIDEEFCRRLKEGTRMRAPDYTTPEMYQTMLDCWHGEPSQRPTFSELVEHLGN

On to `O=C(O)CCc1c(/C=C2\C(=O)Nc3ccc(NC(=O)c4ccc([N+](=O)[O-])cc4)cc32)[nH]c2c1C(=O)CCC2` [DCB-70142, (Z)-3-(2-((5-(4-nitrobenzamido)-2-oxoindolin-3-ylidene)methyl)-4-oxo-4,5,6,7-tetrahydro-1H-indol-3-yl)propanoic acid], for which the inhibition at 0.5 µM on PDGFR-β kinase was found to be 7.9%; on VEGFR2 kinase it was 44.8%. For the same molecule, the inhibition at 1 µM against Aurora B kinase is 2.4%; at Aurora A kinase, 27.1%. At Flt3 kinase, the inhibition at 0.1 µM is 11.8%.

With `O=C(O)CCc1c(/C=C2\C(=O)Nc3cc(-c4ccc(O)cc4)ccc32)[nH]c2c1C(=O)CCCC2` [DCB-70151, (Z)-3-(2-((6-(4-hydroxyphenyl)-2-oxoindolin-3-ylidene)methyl)-4-oxo-1,4,5,6,7,8-hexahydrocyclohepta[b]pyrrol-3-yl)propanoic acid], the inhibition at 0.5 µM against c-Met kinase is -6.5%. Also, the inhibition at 1 µM on Aurora B kinase amounted to 23.6%; against Aurora A kinase it was 37.2%. Further, the inhibition at 0.1 µM at Flt3 kinase came out at 42.2%.

For the molecule `CCOC(=O)CCc1c(/C=C2\C(=O)Nc3cc(-c4ccc(O)cc4)ccc32)[nH]c2c1C(=O)CCCC2` [DCB-70150, (Z)-ethyl 3-(2-((6-(4-hydroxyphenyl)-2-oxoindolin-3-ylidene)methyl)-4-oxo-1,4,5,6,7,8-hexahydrocyclohepta[b]pyrrol-3-yl)propanoate], at c-Met kinase, the inhibition at 0.5 µM worked out at 0.2%. The inhibition at 1 µM came out at 18% against Aurora B kinase and 8.9% at Aurora A kinase. Also, the inhibition at 0.1 µM on Flt3 kinase was found to be 17.1%.

For `CCOC(=O)CCc1c(/C=C2\C(=O)Nc3ccc(S(=O)(=O)N4CCc5ccccc54)cc32)[nH]c2c1C(=O)CCC2` [DCB-70210, (Z)-ethyl 3-(2-((5-(indolin-1-ylsulfonyl)-2-oxoindolin-3-ylidene)methyl)-4-oxo-4,5,6,7-tetrahydro-1H-indol-3-yl)propanoate], the inhibition at 0.5 µM against c-Met kinase was found to be 75.3%. Further, the inhibition at 1 µM stood at 45.5% on Aurora B kinase and 74.6% against Aurora A kinase. The molecule further came in with an IC50 against Aurora A kinase of 100 nM.

Consider `CCOC(=O)CCc1c(/C=C2\C(=O)Nc3ccc(NS(=O)(=O)c4cc(Cl)cc(Cl)c4)cc32)[nH]c2c1C(=O)CCC2` [DCB-70193, (Z)-ethyl 3-(2-((5-(3,5-dichlorophenylsulfonamido)-2-oxoindolin-3-ylidene)methyl)-4-oxo-4,5,6,7-tetrahydro-1H-indol-3-yl)propanoate], for which the inhibition at 0.5 µM against c-Met kinase was 11.2%. For the same molecule, the values for the inhibition at 1 µM on Aurora B kinase and against Aurora A kinase were 36.7% and 74.3%, respectively.

Take `CCOC(=O)CCc1c(/C=C2\C(=O)Nc3ccc(/N=C/c4ccc(F)c(C(F)(F)F)c4)cc32)[nH]c2c1C(=O)CCC2` [DCB-70178, ethyl 3-(2-((Z)-(5-((E)-4-fluoro-3-(trifluoromethyl)benzylideneamino)-2-oxoindolin-3-ylidene)methyl)-4-oxo-4,5,6,7-tetrahydro-1H-indol-3-yl)propanoate]: the inhibition at 0.5 µM on c-Met kinase came to 7.8%. Further, the inhibition at 1 µM is 1.9% against Aurora B kinase and 31.2% against Aurora A kinase.

Regarding `CCOC(=O)CCc1c(/C=C2\C(=O)Nc3ccc(S(=O)(=O)N4CCc5ccccc54)cc32)[nH]c2c1C(=O)CC(C)(C)C2` [DCB-70160, (Z)-ethyl 3-(2-((5-(indolin-1-ylsulfonyl)-2-oxoindolin-3-ylidene)methyl)-6,6-dimethyl-4-oxo-4,5,6,7-tetrahydro-1H-indol-3-yl)propanoate], the inhibition at 0.5 µM at c-Met kinase is 59.1%. For the same molecule, the inhibition at 1 µM worked out at 6.1% against Aurora B kinase and 5% on Aurora A kinase.

As for `CCOC(=O)CCc1c(/C=C2\C(=O)Nc3ccc(/N=C/c4ccncc4)cc32)[nH]c2c1C(=O)CCC2` [DCB-70177, ethyl 3-(4-oxo-2-((Z)-(2-oxo-5-((E)-pyridin-4-ylmethyleneamino)indolin-3-ylidene)methyl)-4,5,6,7-tetrahydro-1H-indol-3-yl)propanoate], the inhibition at 0.5 µM against c-Met kinase turned out to be 18.8%. Also, the inhibition at 1 µM against Aurora B kinase amounted to 22.5%; against Aurora A kinase, 81.6%.
